Data from ChEMBL document CHEMBL1201862, “PubChem BioAssay data set” (2004).
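Tested at 5 concentrations; 48 h exposure; 96-well plates; endpoints linearly interpolated, else capped at highest concentration. Here, GI50 denotes the concentration required for 50% inhibition of growth.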 Activity calls are given as the source filed them. No stated cut-off is given here; in the data, active = GI50 up to about 1.1 µM and inactive = higher.

Columns and labels:
Assay in all cases: inhibition of tumour cell growth, NCI panel, 48 h
786-0 = tested on: 786-0
ACHN = tested on: ACHN
BT-549 = tested on: BT-549
DU-145 = tested on: DU-145
HT-29 = tested on: HT-29
Hs-578T = tested on: Hs-578T
IGROV-1 = tested on: IGROV-1
M14 = tested on: M14
MCF7 = tested on: MCF7
MDA-MB-231 = tested on: MDA-MB-231
NCI-H23 = tested on: NCI-H23
NCI-H522 = tested on: NCI-H522
OVCAR-8 = tested on: OVCAR-8
SK-MEL-28 = tested on: SK-MEL-28
SNB-75 = tested on: SNB-75
U-251 = tested on: U-251
UACC-257 = tested on: UACC-257
RPMI-8226 = tested on: RPMI-8226
HOP-92 = tested on: HOP-92

Measured: GI50

O=c1[nH]c(=O)n(C2CC(O)C(CO)O2)cc1OCC1CCCCC1 (stereo not drawn)
inactive: 786-0 > 100 µM | ACHN > 100 µM | BT-549 > 100 µM | DU-145 > 100 µM | HT-29 > 100 µM | Hs-578T > 100 µM | IGROV-1 > 100 µM | M14 > 100 µM | MCF7 > 100 µM | MDA-MB-231 > 100 µM | NCI-H23 > 100 µM | NCI-H522 > 100 µM | OVCAR-8 > 100 µM | SK-MEL-28 > 100 µM | SNB-75 > 100 µM | U-251 > 100 µM | UACC-257 > 100 µM

Cn1c(=O)sc2cc(C(=S)N3CCCCC3)ccc21
inactive: 786-0 > 100 µM | ACHN 96.2 µM | BT-549 66.4 µM | DU-145 > 100 µM | HT-29 > 100 µM | Hs-578T 30.8 µM | IGROV-1 23.2 µM | M14 > 100 µM | MCF7 > 100 µM | MDA-MB-231 45.9 µM | NCI-H23 > 100 µM | OVCAR-8 25.4 µM | RPMI-8226 61 µM | SK-MEL-28 56.4 µM | SNB-75 19.9 µM | U-251 41.8 µM | UACC-257 > 100 µM

C[C@@H]1[C@@H](c2ccccc2)O[B-](c2ccccc2)(c2ccccc2)[N+]1(C)C
inactive: 786-0 66.7 µM | ACHN 50.1 µM | BT-549 43.6 µM | DU-145 > 100 µM | HOP-92 25.4 µM | HT-29 > 100 µM | Hs-578T 54.2 µM | IGROV-1 96.8 µM | M14 34.5 µM | MDA-MB-231 > 100 µM | NCI-H23 90.6 µM | NCI-H522 58.2 µM | OVCAR-8 99.5 µM | RPMI-8226 58.9 µM | SK-MEL-28 58.3 µM | U-251 > 100 µM | UACC-257 > 100 µM

CC(C)=CCC/C(C)=C/COc1c2ccoc2cc2oc(=O)ccc12 [BERGAMOTTIN]
inactive: 786-0 32.4 µM | ACHN 22.8 µM | BT-549 44.3 µM | HOP-92 50.2 µM | HT-29 19.7 µM | Hs-578T 48.1 µM | IGROV-1 39.5 µM | M14 27.7 µM | MCF7 19.1 µM | MDA-MB-231 24.4 µM | NCI-H23 27.4 µM | NCI-H522 19 µM | OVCAR-8 43.7 µM | RPMI-8226 17.1 µM | SK-MEL-28 59.2 µM | U-251 20.6 µM | UACC-257 24.7 µM
